Results from US20070160725A1, “Use of extracts and compounds of allium-genus plants as preservatives in the food and agri-food industries” (MOUSALA, S., L., priority 2004, published 2007).
Values joined by “and” are separate entries in the source; they are usually repeats but may differ in a detail not shown here. Equal entries are not always repeated.

How the values were obtained:
[1] = system: mold on the surface of the cheese; assay: preservative activity on surface of cheese (PVA emulsion coating); settings: fresh cheese, PVA emulsion with 2000 ppm pimaricin with 12000 ppm of potassium sorbate, diluted 1:1 with water, room temperature
Description: (§1) These tests were carried out according to the instructions for applying said commercial preparations on foods by immersion, such as spiced sausage, chorizo, cheese, etc. (see application examples), with different antimicrobial product doses.
The amounts of PTS and pimaricin with potassium sorbate (12000 ppm) as shown in the corresponding table are added to emulsions of 1 kg of PVA. Said preparations are diluted 1:1 with water and pieces of fresh cheese without surface treatment are submerged therein. Once the pieces are dry, each one is introduced into a sealed recipient and is left at room temperature. They are monitored, and the occurrence of mold on their surface is observed on the days herein set forth:
Amounts of complex in α-cyclodextrin (sample 2) and β-cyclodextrin (sample 3) are added to emulsions of 1 kg of PVA such that the amount of active ingredient, PTS, is 5000 ppm. On the other hand a sample (no. 1) is prepared with pimaricin (2000 ppm) and potassium sorbate (12000 ppm). The same process is followed as in the previous case upon applying the products and the samples are monitored, the occurrence of mold on the surface of the cheese being observed according to the following table: […]

[2] = system: mold; assay: preserving activity on the surface of sausages (large intestine chorizo and spiced sausage); settings: intestines submerged in a pimaricin solution at 500 ppm for 3 hours before stuffing
Description: as §1
Preparing sample 1: First a series of pig large intestines are submerged in a dispersion of pimaricin in water, 500 ppm, for three hours. Then two pieces are stuffed with 600 g each.
Then 4 other pieces are stuffed with 600 g each and are treated as follows: • Control sample: two pieces are left untreated. • Sample 2: Two pieces are submerged for 2 minutes in a dispersion of sucrose esters in water (10-40 g/kg of water), with a concentration of 3000 ppm of PTS.
All the pieces are subjected to drying between 24 and 26° C. and 90% relative humidity for 72 hours. Then they are hung and left to cure. The external appearance is monitored and the following results are obtained: […]

[3] = system: Proteus vulgaris, ATCC 13315; assay: agar diffusion, inhibition halo; assay type: cell-based
Description: (§2) In order to evaluate the antimicrobial activity the agar diffusion technique with cellulose discs of 6 mm in diameter impregnated with the different active ingredient testing doses was used.
(§3) Antibacterial capacity was assessed against suspensions of 10^6 cells/ml, prepared from pure young cultures of each one of the strains to be tested. The culture medium used was Müller-Hinton medium (Merck).
(§4) After incubating the culture dishes inoculated with the different organisms at the corresponding temperatures, the microbial inhibition halos that appeared were measured, and said measurement includes the 6 mm diameter of the cellulose discs.

[4] = system: Streptococcus faecalis, isolated from a spiced sausage; assay: agar diffusion, inhibition halo; assay type: cell-based
Description: as §2, §3, §4

[5] = system: Salmonella typhimurium, ATCC 13311; assay: agar diffusion, inhibition halo; assay type: cell-based
Description: as §2, §3, §4

[6] = system: Pseudomonas aeruginosa, ATCC 13925; assay: agar diffusion, inhibition halo; assay type: cell-based
Description: as §2, §3, §4

[7] = system: Bacillus megaterium, ATCC 33085; assay: agar diffusion, inhibition halo; assay type: cell-based
Description: as §2, §3, §4

[8] = system: Escherichia coli, CECT 515; assay: agar diffusion, inhibition halo; assay type: cell-based
Description: as §2, §3, §4

[9] = system: Micrococcus luteus, isolated from a spiced sausage; assay: agar diffusion, inhibition halo; assay type: cell-based
Description: as §2, §3, §4

[10] = system: Bacillus cereus, CECT 1178; assay: agar diffusion, inhibition halo; assay type: cell-based
Description: as §2, §3, §4

[11] = system: Staphylococcus aureus, isolated from hamburgers; assay: agar diffusion, inhibition halo; assay type: cell-based
Description: as §2, §3, §4

[12] = system: Saccharomyces cerevisiae, CECT 1324; assay: agar diffusion, inhibition halo; assay type: cell-based
Description: as §2
(§5) Antifungal capacity was assessed against suspensions of […], harvested from pure cultures of the selected molds and against suspensions of 10^7 cells/ml for the case of yeasts. The culture medium used was the 2% Sabouraud-glucose medium (Merck).
as §4

[13] = system: Penicillium funiculosum, CECT 2702; assay: agar diffusion, inhibition halo; assay type: cell-based
Description: as §2, §5, §4

[14] = system: Aspergillus niger, CECT 2700; assay: agar diffusion, inhibition halo; assay type: cell-based
Description: as §2, §5, §4

[15] = system: Aspergillus terreus, isolated from the environment of the cheese maturation chamber; assay: agar diffusion, inhibition halo; assay type: cell-based
Description: as §2, §5, §4

[16] = system: Pullularia pullulans, CECT 2657; assay: agar diffusion, inhibition halo; assay type: cell-based
Description: as §2, §5, §4

[17] = system: Geotrichum candidum CECT 1902; assay: agar diffusion, inhibition halo; assay type: cell-based; settings: in polyvinyl acetate emulsion, 2000 ppm
Description: as §2, §5, §4

[18] = system: Mucor plumbeus, isolated from cheese; assay: agar diffusion, inhibition halo; assay type: cell-based; settings: in polyvinyl acetate emulsion, 2000 ppm
Description: as §2, §5, §4

[19] = system: Candida albicans, ATCC 10231; assay: agar diffusion, inhibition halo; assay type: cell-based
Description: as §2, §5, §4

[20] = system: Penicillium sp, isolated from cheese; assay: agar diffusion, inhibition halo; assay type: cell-based
Description: as §2, §5, §4

[21] = system: Trichoderma viride, CECT 2460; assay: agar diffusion, inhibition halo; assay type: cell-based
Description: as §2, §5, §4

[22] = 250 ppm (second column headed 250)
[23] = in polyvinyl acetate emulsion, 2000 ppm

Question: For `C[C@@H]1C/C=C/C=C/C=C/C=C/[C@H](O[C@@H]2O[C@H](C)[C@@H](O)[C@H](N)[C@@H]2O)C[C@@H]2O[C@](O)(C[C@@H](O)C[C@H]3O[C@@H]3/C=C/C(=O)O1)C[C@H](O)[C@H]2C(=O)O` [Pimaricin, pimaricin], which “Visible occurrence of mold at” value [1] is on record?
Answer: The value was 10 to 15 days and 10 to 16 days.

Question: What about the “Visible occurrence of mold at” value [2] of the same compound?
Answer: The value was 6 days.

Question: What about the inhibition halo diameter ([3]; 62.5 ppm) of the same compound?
Answer: Its inhibition halo diameter is 0 mm.

Question: And the inhibition halo diameter ([3]; 250 ppm)?
Answer: The inhibition halo diameter was 0 mm.

Question: And the inhibition halo diameter [3, 22]?
Answer: Its inhibition halo diameter is 0 mm.

Question: What about the inhibition halo diameter ([3]; 500 ppm) of the same compound?
Answer: The inhibition halo diameter was 0 mm.

Question: And the inhibition halo diameter ([3]; 1000 ppm)?
Answer: The inhibition halo diameter was 0 mm.

Question: And the inhibition halo diameter ([4]; 62.5 ppm)?
Answer: Its inhibition halo diameter is 0 mm.

Question: And the inhibition halo diameter ([4]; 250 ppm)?
Answer: Its inhibition halo diameter is 0 mm.

Question: What about the inhibition halo diameter [4, 22] of the same compound?
Answer: Its inhibition halo diameter is 0 mm.

Question: And the inhibition halo diameter ([4]; 500 ppm)?
Answer: The inhibition halo diameter was 0 mm.

Question: And the inhibition halo diameter ([4]; 1000 ppm)?
Answer: Its inhibition halo diameter is 0 mm.

Question: What about the inhibition halo diameter ([5]; 62.5 ppm) of the same compound?
Answer: Its inhibition halo diameter is 0 mm.

Question: What about the inhibition halo diameter ([5]; 250 ppm) of the same compound?
Answer: Its inhibition halo diameter is 0 mm.

Question: What about the inhibition halo diameter [5, 22] of the same compound?
Answer: Its inhibition halo diameter is 0 mm.

Question: What about the inhibition halo diameter ([5]; 500 ppm) of the same compound?
Answer: The inhibition halo diameter was 0 mm.

Question: What about the inhibition halo diameter ([5]; 1000 ppm) of the same compound?
Answer: The inhibition halo diameter was 0 mm.

Question: What about the inhibition halo diameter ([6]; 62.5 ppm) of the same compound?
Answer: Its inhibition halo diameter is 0 mm.

Question: And the inhibition halo diameter ([6]; 250 ppm)?
Answer: Its inhibition halo diameter is 0 mm.

Question: What about the inhibition halo diameter [6, 22] of the same compound?
Answer: Its inhibition halo diameter is 0 mm.

Question: What about the inhibition halo diameter ([6]; 500 ppm) of the same compound?
Answer: The inhibition halo diameter was 0 mm.

Question: And the inhibition halo diameter ([6]; 1000 ppm)?
Answer: The inhibition halo diameter was 0 mm.

Question: What about the inhibition halo diameter ([7]; 62.5 ppm) of the same compound?
Answer: Its inhibition halo diameter is 0 mm.

Question: What about the inhibition halo diameter ([7]; 250 ppm) of the same compound?
Answer: The inhibition halo diameter was 0 mm.

Question: What about the inhibition halo diameter [7, 22] of the same compound?
Answer: The inhibition halo diameter was 0 mm.

Question: What about the inhibition halo diameter ([7]; 500 ppm) of the same compound?
Answer: Its inhibition halo diameter is 0 mm.

Question: What about the inhibition halo diameter ([7]; 1000 ppm) of the same compound?
Answer: Its inhibition halo diameter is 0 mm.

Question: And the inhibition halo diameter ([8]; 62.5 ppm)?
Answer: The inhibition halo diameter was 0 mm.

Question: What about the inhibition halo diameter ([8]; 250 ppm) of the same compound?
Answer: Its inhibition halo diameter is 0 mm.

Question: What about the inhibition halo diameter [8, 22] of the same compound?
Answer: The inhibition halo diameter was 0 mm.

Question: And the inhibition halo diameter ([8]; 500 ppm)?
Answer: The inhibition halo diameter was 0 mm.

Question: And the inhibition halo diameter ([8]; 1000 ppm)?
Answer: Its inhibition halo diameter is 0 mm.

Question: And the inhibition halo diameter ([9]; 100 ppm)?
Answer: Its inhibition halo diameter is 0 mm.

Question: And the inhibition halo diameter ([9]; 1000 ppm)?
Answer: The inhibition halo diameter was 0 mm.

Question: What about the inhibition halo diameter ([10]; 100 ppm) of the same compound?
Answer: The inhibition halo diameter was 0 mm.

Question: What about the inhibition halo diameter ([10]; 1000 ppm) of the same compound?
Answer: Its inhibition halo diameter is 0 mm.

Question: And the inhibition halo diameter ([11]; 62.5 ppm)?
Answer: The inhibition halo diameter was 0 mm.

Question: What about the inhibition halo diameter ([11]; 250 ppm) of the same compound?
Answer: Its inhibition halo diameter is 0 mm.

Question: What about the inhibition halo diameter [11, 22] of the same compound?
Answer: The inhibition halo diameter was 0 mm.

Question: And the inhibition halo diameter ([11]; 500 ppm)?
Answer: Its inhibition halo diameter is 0 mm.

Question: And the inhibition halo diameter ([11]; 1000 ppm)?
Answer: Its inhibition halo diameter is 0 mm.

Question: What about the inhibition halo diameter ([12]; 100 ppm) of the same compound?
Answer: The inhibition halo diameter was 26 mm.

Question: And the inhibition halo diameter ([12]; 1000 ppm)?
Answer: Its inhibition halo diameter is 26 mm.

Question: What about the inhibition halo diameter ([13]; 62.5 ppm) of the same compound?
Answer: The inhibition halo diameter was 10 mm.

Question: What about the inhibition halo diameter ([13]; 250 ppm) of the same compound?
Answer: Its inhibition halo diameter is 11 mm.

Question: What about the inhibition halo diameter [13, 22] of the same compound?
Answer: Its inhibition halo diameter is 10 mm.

Question: What about the inhibition halo diameter ([13]; 500 ppm) of the same compound?
Answer: Its inhibition halo diameter is 12 mm.

Question: And the inhibition halo diameter ([13]; 1000 ppm)?
Answer: The inhibition halo diameter was 12 mm.

Question: What about the inhibition halo diameter ([14]; 62.5 ppm) of the same compound?
Answer: The inhibition halo diameter was 19 mm.

Question: And the inhibition halo diameter ([14]; 250 ppm)?
Answer: The inhibition halo diameter was 19 mm.

Question: What about the inhibition halo diameter [14, 22] of the same compound?
Answer: The inhibition halo diameter was 19 mm.

Question: And the inhibition halo diameter ([14]; 500 ppm)?
Answer: The inhibition halo diameter was 20 mm.

Question: What about the inhibition halo diameter ([14]; 1000 ppm) of the same compound?
Answer: Its inhibition halo diameter is 20 mm.

Question: What about the inhibition halo diameter [14, 23] of the same compound?
Answer: The inhibition halo diameter was 20 mm.

Question: What about the inhibition halo diameter ([15]; 100 ppm) of the same compound?
Answer: Its inhibition halo diameter is 14 mm.

Question: What about the inhibition halo diameter ([15]; 1000 ppm) of the same compound?
Answer: The inhibition halo diameter was 15 mm.

Question: What about the inhibition halo diameter ([16]; 62.5 ppm) of the same compound?
Answer: Its inhibition halo diameter is 24 mm.

Question: What about the inhibition halo diameter ([16]; 250 ppm) of the same compound?
Answer: The inhibition halo diameter was 28 mm.

Question: And the inhibition halo diameter [16, 22]?
Answer: The inhibition halo diameter was 28 mm.

Question: What about the inhibition halo diameter ([16]; 500 ppm) of the same compound?
Answer: Its inhibition halo diameter is 30 mm.

Question: What about the inhibition halo diameter ([16]; 1000 ppm) of the same compound?
Answer: The inhibition halo diameter was 23 mm.

Question: What about the inhibition halo diameter [17] of the same compound?
Answer: Its inhibition halo diameter is 15 mm.

Question: What about the inhibition halo diameter [18] of the same compound?
Answer: Its inhibition halo diameter is 13 mm.

Question: What about the inhibition halo diameter ([19]; 62.5 ppm) of the same compound?
Answer: Its inhibition halo diameter is 10 mm.

Question: And the inhibition halo diameter ([19]; 250 ppm)?
Answer: Its inhibition halo diameter is 12 mm.

Question: And the inhibition halo diameter [19, 22]?
Answer: Its inhibition halo diameter is 12 mm.

Question: And the inhibition halo diameter ([19]; 500 ppm)?
Answer: The inhibition halo diameter was 14 mm.

Question: And the inhibition halo diameter ([19]; 1000 ppm)?
Answer: The inhibition halo diameter was 16 mm.

Question: And the inhibition halo diameter ([20]; 100 ppm)?
Answer: Its inhibition halo diameter is 24 mm.

Question: And the inhibition halo diameter ([20]; 1000 ppm)?
Answer: Its inhibition halo diameter is 26 mm.

Question: And the inhibition halo diameter [20, 23]?
Answer: Its inhibition halo diameter is 18 mm.

Question: And the inhibition halo diameter ([21]; 62.5 ppm)?
Answer: Its inhibition halo diameter is 13 mm.

Question: What about the inhibition halo diameter ([21]; 250 ppm) of the same compound?
Answer: Its inhibition halo diameter is 15 mm.

Question: And the inhibition halo diameter [21, 22]?
Answer: Its inhibition halo diameter is 14 mm.

Question: What about the inhibition halo diameter ([21]; 500 ppm) of the same compound?
Answer: Its inhibition halo diameter is 16 mm.

Question: What about the inhibition halo diameter ([21]; 1000 ppm) of the same compound?
Answer: The inhibition halo diameter was 18 mm.
